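Each compound was tested at five concentrations against cells in 96-well plates for 48 hours. Here, GI50 denotes the concentration required for 50% inhibition of growth.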 Calls of active or inactive are those of the source. Rule as the data show it: active = GI50 up to about 1.1 µM and inactive = higher.
Legend:
Assay in all cases: DTP human tumour cell line panel, 48 h
[1] = tested on: A549
[2] = tested on: COLO 205
[3] = tested on: DU-145
[4] = tested on: HCC 2998
[5] = tested on: HOP-92
[6] = tested on: IGROV-1
[7] = tested on: K562
[8] = tested on: KM12
[9] = tested on: MDA-MB-231
[10] = tested on: MDA-N
[11] = tested on: MOLT-4
[12] = tested on: NCI-H23
[13] = tested on: SK-MEL-28
[14] = tested on: SK-MEL-5
[15] = tested on: SN12C
[16] = tested on: SNB-19
[17] = tested on: SNB-75
[18] = tested on: SR
[19] = tested on: T47D
[20] = tested on: U-251

Measured: GI50

CC(C)(CCc1nc2ccccc2[nH]1)C(=O)O
inactive: [1] > 100 µM | [2] > 100 µM | [3] > 100 µM | [4] > 100 µM | [5] > 100 µM | [6] > 100 µM | [7] > 28 µM | [8] > 100 µM | [9] > 100 µM | [10] > 100 µM | [11] > 100 µM | [12] > 100 µM | [13] > 100 µM | [14] > 100 µM | [15] > 100 µM | [16] > 100 µM | [17] > 100 µM | [18] > 100 µM | [19] > 100 µM | [20] > 100 µM

C=C1CN=C(Nc2ccc(F)cc2F)S1
inactive: [1] > 100 µM | [2] > 100 µM | [3] > 100 µM | [4] > 100 µM | [5] 2.51 µM | [6] > 100 µM | [7] 30.5 µM | [8] > 100 µM | [9] > 100 µM | [10] > 100 µM | [11] 31.7 µM | [12] > 100 µM | [13] > 100 µM | [14] > 100 µM | [15] > 100 µM | [16] > 100 µM | [17] 32.1 µM | [18] 36.8 µM | [19] > 100 µM | [20] > 100 µM

COc1ccc2c(c1)CC[C@@H]1C2CC[C@]2(C)C(=O)N(C)C(=O)CC12 (stereo not given in full)
inactive: [1] > 100 µM | [2] > 100 µM | [3] > 100 µM | [4] > 100 µM | [5] > 100 µM | [6] > 100 µM | [7] > 100 µM | [8] > 100 µM | [9] > 100 µM | [10] > 100 µM | [11] > 100 µM | [12] > 100 µM | [13] > 100 µM | [14] > 100 µM | [15] > 100 µM | [16] > 100 µM | [17] 52.5 µM | [18] 13.9 µM | [19] > 100 µM | [20] 75.9 µM

Nc1ccccc1OCCCOc1ccccc1N
inactive: [1] > 100 µM | [2] > 100 µM | [3] > 100 µM | [4] > 100 µM | [5] > 100 µM | [6] > 100 µM | [7] > 100 µM | [8] > 100 µM | [9] > 100 µM | [10] 51.8 µM | [11] > 100 µM | [12] > 100 µM | [13] > 100 µM | [14] 78.3 µM | [15] > 100 µM | [16] > 100 µM | [17] > 100 µM | [18] 88.5 µM | [19] > 100 µM | [20] > 100 µM

CC(=O)c1c(C)cn(S(=O)(=O)NC(=O)Nc2nncs2)c1C
inactive: [1] > 100 µM | [2] > 100 µM | [3] > 100 µM | [4] > 100 µM | [5] > 100 µM | [6] > 100 µM | [7] > 100 µM | [8] > 100 µM | [9] > 100 µM | [10] > 100 µM | [11] > 100 µM | [12] > 100 µM | [13] > 100 µM | [14] > 100 µM | [15] > 100 µM | [16] > 100 µM | [17] > 100 µM | [18] > 100 µM | [19] > 100 µM | [20] > 100 µM

O=C(NCCc1ccccc1)c1cc(/C=C/c2cc(O)ccc2O)ccc1O
inactive: [1] 10.3 µM | [2] 5.61 µM | [3] 8.59 µM | [4] 10.1 µM | [5] 1.87 µM | [6] 3.03 µM | [7] 2.59 µM | [8] 6.05 µM | [9] 4.36 µM | [10] 2.96 µM | [11] 2.52 µM | [12] 4.95 µM | [13] 3.08 µM | [14] 2.74 µM | [15] 4.92 µM | [16] 6.71 µM | [17] 5.57 µM | [18] 3.01 µM | [19] 1.92 µM | [20] 2.36 µM

Reference: ChEMBL document CHEMBL1201862, “PubChem BioAssay data set” (2004)
